According to patent publication US10308607B2, “Fucosidase inhibitors” (HORIZON ORPHAN LLC, priority 2015, dated 2019):
pIC50: −log10 of the molar value.

Columns and labels:
[1] = molecular target: rhFUCA1 (Homo sapiens (Human), UniProt P04066); assay: In vitro fucosidase inhibition (4MU-FUC fluorescence); format: biochemical; conditions: 1 ng/mL rhFUCA1, 640 nM 4MU-FUC, pH 4.5, 37° C., 30 minutes
Procedure: Fucosidase inhibition was assessed by preparing a reaction mixture of 50 mM phosphate-citrate pH 4.5, 5 mM MgCl2, 640 nM 4-methylumbelliferyl-alpha-L-fucopyranoside (4MU-FUC), 1 ng/mL rhFUCA1 (R&D Systems), and compound II, III, or IV:
Reactions (100 μL) were incubated at 37° C. for 30 minutes and then quenched with the same volume of 600 mM citrate-carbonate buffer, pH 9. Fluorescence was measured by excitation at 360 nm and emission at 450 nm.

[2] = tested on: HepG2 cells; assay: Metabolic labeling with tagged-fucose, flow cytometry; format: cell-based, human; conditions: for Mean Green Fluorescence (GRN-HLog): HepG2, 24 hours compound then 48 hours fucose alkyne, Alexa Fluor 488 Azide; for Fold over vehicle: mean green fluorescence, HepG2
Procedure: Perturbations in glycoprotein metabolism were assayed by growing HepG2 cells without fucosidase inhibitors, or with compound II, III, or IV (see Example 2) for 24 hours, and then adding (3S,4R,5R,6S)-6-ethynyltetrahydro-2H-pyran-2,3,4,5-tetrayl tetra acetate, a per-acetylated analog of fucose containing an alkyne moiety in place of the 5′-methyl group (Click-iT™ Fucose Alkyne, Molecular Probes, Eugene, Oreg.) for an additional 48 hours. Cells were fixed, permeabilized, washed, and stained with Alexa Fluor 488 Azide to orthogonally label glycoproteins incorporating the fucose analog. Cells were then analyzed for fluorescence using a Guava 6HT-2L flow cytometer (ThermoFisher).

[3] = tested on: HepG2 cells; assay: Cytotoxicity in HepG2 cells (XTT assay); format: cell-based, human; conditions: HepG2, 24 or 48 hours, compared to compound II
Procedure: To assess the compounds' cytotoxicity in cells, HepG2 cells were seeded in triplicate in 96-well plates at 1.5e4 cells/well in Minimum Essential Media, 10% FBS and 2 mM L-glutamine. Plated cells were allowed to recover for 48 hours. Medium was then replaced with the same media containing dilutions of compound II or IV (see Example 2), incubated for 24 or 48 hours, and subjected to XTT assay to measure viability (ATCC).

[4] = tested on: fucosidase; conditions: Li et al. 2008; cited from earlier work

Chain of rhFUCA1 (P04066 32-466): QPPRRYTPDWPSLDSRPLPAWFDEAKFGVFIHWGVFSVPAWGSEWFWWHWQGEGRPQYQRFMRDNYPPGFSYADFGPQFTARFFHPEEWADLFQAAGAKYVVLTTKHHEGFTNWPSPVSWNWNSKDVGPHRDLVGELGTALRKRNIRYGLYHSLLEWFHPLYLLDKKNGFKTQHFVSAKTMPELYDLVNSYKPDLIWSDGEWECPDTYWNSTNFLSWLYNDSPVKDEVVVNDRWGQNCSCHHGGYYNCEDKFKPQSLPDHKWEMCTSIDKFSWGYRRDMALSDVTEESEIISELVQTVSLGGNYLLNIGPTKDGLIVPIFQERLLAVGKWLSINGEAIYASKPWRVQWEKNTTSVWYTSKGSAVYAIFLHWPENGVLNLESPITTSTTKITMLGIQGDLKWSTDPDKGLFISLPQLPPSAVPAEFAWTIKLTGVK

Row | Structure (SMILES) | pIC50 [1] | Mean Green Fluorescence (GRN-HLog) [2] | Fold over vehicle [2] | cytotoxicity (XTT viability) [3] | potency of fucosidase inhibition [4]
1 | O=C(NC[C@@H]1N[C@@H](CF)[C@@H](O)[C@@H](O)[C@@H]1O)c1cccc2c1C(=O)c1ccccc1-2 [Compound III] | 7.23 | 1220 | 0.43 | – | –
2 | C[C@@H]1N/C(=C\C(=O)Nc2cccc3c2C(=O)c2ccccc2-3)[C@@H](O)[C@H](O)[C@@H]1O [Compound IV] | 5.82 | 12900 | 4.56 | reduced cytotoxicity at higher inhibitor concentrations compared to compound II | –
3 | CCCCN1C[C@H](O)[C@@H](O)[C@H](O)[C@H](C(=O)O)C1 [Faz, (3R,4R,5S,6S)-1-butyl-4,5,6-trihydroxyazepane-3-carboxylic acid] | – | – | – | – | low nanomolar range
